Measured values published in publication PMC8307317, “Point-Substitution of Phenylalanine Residues of 26RFa Neuropeptide: A Structure-Activity Relationship Study” (Molecules, 2021).
Read-outs that look alike come from different tables or passages of the source. Non-standard residues stand in square brackets, D forms with d. Residues, ends and D or L forms follow the SMILES beside them. No end group written: not given here. *: point of attachment. Phe(4-tBu) = CC(C)(C)c1ccc(C[C@H](N)C(=O)O)cc1; X4 = COc1ccc(C(C(=O)*)N2CCNCC2)cc1OC; X5 = COc1ccc(C(C(=O)*)N2CCNCC2)cc1; X1 = O=C(C(c1cccnc1)N1CCNCC1)*

What was measured:
human QRFPR (hQRFPR) [1] = target: T1, human QRFPR (hQRFPR) (Homo sapiens, UniProt Q96P65); assay: Calcium mobilization assay, antagonist mode (26RFa-evoked [Ca2+]i increase in Gα16-hQRFPR-transfected CHO cells); type: cell-based; settings: for inhibition at 10 µM: CHO, read-out: Imax (inhibition of 26RFa-evoked response); for inhibition at 10 µM / Imax (inhibition of 26RFa-evoked response): Inhibition at a maximal concentration of 10^−5 M, 10^−7 M 26RFa
T1 construct: expressed in transfected cells; host or cells: CHO cells, stably transfected with hQRFPR (G418 selection) and Gα16 (hygromycin B selection)
T1 sequence (Q96P65 1-431): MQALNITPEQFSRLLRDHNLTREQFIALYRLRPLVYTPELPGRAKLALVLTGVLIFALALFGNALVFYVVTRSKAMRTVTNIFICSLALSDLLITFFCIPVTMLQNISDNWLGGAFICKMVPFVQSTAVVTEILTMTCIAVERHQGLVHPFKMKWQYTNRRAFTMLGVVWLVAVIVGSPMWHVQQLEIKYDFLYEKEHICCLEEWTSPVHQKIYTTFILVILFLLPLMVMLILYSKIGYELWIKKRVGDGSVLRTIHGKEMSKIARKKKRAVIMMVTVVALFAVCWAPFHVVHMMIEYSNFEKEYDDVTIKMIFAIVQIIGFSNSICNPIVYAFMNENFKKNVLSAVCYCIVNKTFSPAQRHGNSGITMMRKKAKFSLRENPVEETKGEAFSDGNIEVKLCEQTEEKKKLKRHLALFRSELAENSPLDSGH
Method: (§1) Stably transfected hQRFPR CHO cells were obtained as previously described. The cells were maintained in F-12 nutrient mixture (Ham-F12) medium supplemented with 10% fetal bovine serum, 2 mM glutamine, and penicillin-streptomycin. Expression of Gα16 cells was maintained using selection antibiotic hygromycin B (200 µg/mL) and that of hQRFPR using geneticin G418 (500 µg/mL) (Life Technologies, Villebon-Sur-Yvette, France) in a humidified 5% CO2 atmosphere at 37 °C.
(§2) Changes in intracellular Ca^2+ concentrations induced by 26RFa(20–26) analogs in CHO-Gα16-hQRFPR-transfected cells were measured on a benchtop scanning fluorometer Flexstation III (Molecular Devices, Sunnyvale, CA, USA) as previously described. Briefly, 96-well assay black plates with clear bottoms (Corning international, Avon, France) were seeded at a density of 40,000 cells/well 24 h prior to assay. For profiling agonistic experiments, cells were loaded with 2 µM Fluo-4 acetoxymethyl ester (AM) (Invitrogen) for 1 h in the presence of 0.01% pluronic acid, washed thrice, and incubated for 30 min with standard HBSS containing 2.5 mM probenecid and 5 mM HEPES. Compounds to be tested were added at final concentrations ranging from 10^−11 to 10^−5 M in HBSS, and the fluorescence intensity was measured during 3 min. To evaluate the antagonistic potency of the test compounds, cells were incubated with each compound over 15 min after Fluo-4 AM loading. Then, during fluorescence recording, a pulse of 26RFa was administered at a final concentration of 10^−7 M. After subtraction of the mean fluorescence background, the baseline was normalized to 100%. Fluorescence peak values were determined for each concentration of compound.
(§3) Calcium experiments were performed in triplicate, and data, expressed as mean ± SEM of at least three distinct experiments, were analyzed with the Prism 8.0 software (Graphpad Software, San Diego, CA, USA). EC50 and the IC50 values were determined from concentration–response curves using a sigmoidal dose–response fit with variable slope from at least three independent determinations. Differences between 26RFa(20–26) and analog activities were analyzed by the Mann–Whitney test. p values < 0.05 were considered significant.

human QRFPR (hQRFPR) [2] = target: T1, human QRFPR (hQRFPR); assay: Calcium mobilization assay, agonist mode ([Ca2+]i in Gα16-hQRFPR-transfected CHO cells); type: cell-based
Method: as §1, §2, §3

human QRFPR (hQRFPR) [3] = target: T1, human QRFPR (hQRFPR); design: method as in PMID 22800498; settings: cited from earlier work
[4] = single prototype curve, triplicate, 10^−7 M 26RFa-evoked response, read-out: IC50 calculated from representative dose–inhibition curves (Figure 4)
[5] = [Ca2+]i mobilization in Gα16-hQRFPR-transfected CHO cells, mean of at least three independent experiments performed in triplicate, read-out: EC50

Row | Compound | EC50 (human QRFPR (hQRFPR) [2]; [5]) [µM] | also measured
1 | CC(C)(C)c1ccc(C[C@H](NC(=O)CNC(=O)CN)C(=O)N[C@@H](CO)C(=O)N[C@@H](Cc2ccccc2)C(=O)N[C@@H](CCCNC(=N)N)C(=O)N[C@@H](Cc2ccccc2)C(N)=O)cc1 [Compound 11, [ptBuPhe^22]26RFa(20–26)] (H-GG[Phe(4-tBu)]SFRF-NH2) | > 10 | inhibition at 10 µM (human QRFPR (hQRFPR) [1]): 45 to 46%; Imax (inhibition of 26RFa-evoked response) (human QRFPR (hQRFPR) [1]): 45%; IC50 (human QRFPR (hQRFPR) [1]; inhibition of 10^−7 M 26RFa-evoked [Ca2+]i response, compounds inactive as agonists, ND = not detectable, read-out: IC50): 6.22 µM; IC50 (human QRFPR (hQRFPR) [1]; [4]): 4.49 µM
2 | N=C(N)NCCC[C@H](NC(=O)[C@H](Cc1ccccc1)NC(=O)[C@H](CO)NC(=O)[C@H](Cc1ccccc1)NC(=O)CNC(=O)CN)C(=O)N[C@H](Cc1c[nH]c2ccccc12)C(N)=O [Compound 39, [DTrp^26]26RFa(20–26)] (H-GGFSFR[dW]-NH2) | – | inhibition at 10 µM (human QRFPR (hQRFPR) [1]): 45 to 46%; Imax (inhibition of 26RFa-evoked response) (human QRFPR (hQRFPR) [1]): 46%; IC50 (human QRFPR (hQRFPR) [1]; [4]): 5.84 µM
3 | COc1ccc(C(C(=O)N[C@@H](CO)C(=O)N[C@@H](Cc2ccccc2)C(=O)N[C@@H](CCCNC(=N)N)C(=O)N[C@@H](Cc2ccccc2)C(N)=O)N2CCNCC2)cc1 (stereo partly shown) [Compound 59, [Cmpi(4-MeOPhg)^22]26RFa(22–26)] (X5-SFRF-NH2) | > 10 | –
4 | COc1ccc(C(C(=O)N[C@@H](CO)C(=O)N[C@@H](Cc2ccccc2)C(=O)N[C@@H](CCCNC(=N)N)C(=O)N[C@@H](Cc2ccccc2)C(N)=O)N2CCNCC2)cc1 (stereo partly shown) [Compound 60, [Cmpi(4-MeOPhg)^22]26RFa(22–26)] (X5-SFRF-NH2) | > 10 | –
5 | COc1ccc(C(C(=O)N[C@@H](CO)C(=O)N[C@@H](Cc2ccccc2)C(=O)N[C@@H](CCCNC(=N)N)C(=O)N[C@@H](Cc2ccccc2)C(N)=O)N2CCNCC2)cc1OC (stereo partly shown) [Compound 61, [Cmpi(3,4-diMeOPhg)^22]26RFa(22–26)] (X4-SFRF-NH2) | > 10 | –
6 | COc1ccc(C(C(=O)N[C@@H](CO)C(=O)N[C@@H](Cc2ccccc2)C(=O)N[C@@H](CCCNC(=N)N)C(=O)N[C@@H](Cc2ccccc2)C(N)=O)N2CCNCC2)cc1OC (stereo partly shown) [Compound 62, [Cmpi(3,4-diMeOPhg)^22]26RFa(22–26)] (X4-SFRF-NH2) | > 10 | –
7 | N=C(N)NCCC[C@H](NC(=O)[C@H](Cc1ccccc1)NC(=O)[C@H](CO)NC(=O)C(c1cccnc1)N1CCNCC1)C(=O)N[C@@H](Cc1ccccc1)C(N)=O (stereo partly shown) [Compound 63, [Cmpi(3-Pyg)^22]26RFa(22–26)] (X1-SFRF-NH2) | 4.99 | –
8 | N=C(N)NCCC[C@H](NC(=O)[C@H](Cc1ccccc1)NC(=O)[C@H](CO)NC(=O)C(c1cccnc1)N1CCNCC1)C(=O)N[C@@H](Cc1ccccc1)C(N)=O (stereo partly shown) [Compound 64, [Cmpi(3-Pyg)^22]26RFa(22–26)] (X1-SFRF-NH2) | > 10 | –
9 | GGFSFRF-NH2 [Compound 1, 26RFa(20–26)] | – | EC50 (human QRFPR (hQRFPR) [2]; single prototype curve, triplicate, basal [Ca2+]i mobilization, read-out: EC50 calculated from representative dose–response curves (Figure 3)): 1.07 µM
10 | GGFSFRW-NH2 [Compound 10, [Trp^26]26RFa(20–26)] | 5.06 | –
11 | GGFSWRF-NH2 [Compound 9, [Trp^24]26RFa(20–26)] | 2.04 | –
12 | GGWSFRF-NH2 [Compound 8, [Trp^22]26RFa(20–26)] | 1.98 | –
13 | [Cmpi^21]26RFa(21–26) [LV-2043] | – | fold more potent than the reference heptapeptide 26RFa(20–26) (human QRFPR (hQRFPR) [3]): 5 fold
